Results from patent US6498862B1 (priority 1999, dated 2002).

System: B. cepacia biofilm
Assay type: cell-based, Burkholderia cepacia

O=[O+][O-] [ozone, Ozone]
biocide efficacy (rank order, from cell number/3000 μm^2 and total cell area vs elapsed time): greatest
